From patent US9005902B2, “Tuberculosis diagnostic test” (priority 1998, dated 2015)

Legend:
[1] = system: ESAT-6 peptide-specific IFN-γ-secreting T cells from peripheral blood; type: cell-based, human; conditions: for % of TB patients responding to individual peptide: peptide 10 μg/ml, 3×10^5 PBMC/well, positive = at least 5 IFN-γ SFCs more than and at least twice negative control
[2] = system: HLA DR1; assay: Peptide binding to HLA DR1
[3] = system: HLA DR7; assay: Peptide binding to HLA DR7

Sequence	% of TB patients responding to individual peptide [1] [%]	also measured
EGKQSLTKLAAAWGG (listed as Mycobacterium tuberculosis) [ES7, 15-mer peptide from ESAT-6 of M. tuberculosis]	15	
MTEQQWNFAGIEAAA (listed as Mycobacterium tuberculosis) [ES1, 15-mer peptide from ESAT-6 of M. tuberculosis]	57	Binding to HLA DR1 [2]: binds; % of healthy contacts tested recognising the peptide ([1]; healthy contacts exposed to open pulmonary tuberculosis): 68%; Number of contacts testing positive ([1]; out of 22 contacts with prolonged exposure to smear positive index case, Heaf test grade 3 or 4): 15; Binding to HLA DR7 [3]: binds
NLARTISEAGQAMAS [ES15]	34	
NNALQNLARTISEAG [ES14]	28	Detection of ESAT-6-specific CD8 T cells ([1]; peptide contains CD8 epitopes): detected
QKWDATATELNNALQ (listed as Mycobacterium tuberculosis) [ES12, 15-mer peptide from ESAT-6 of M. tuberculosis]	25	
SAIQGNVTSIHSLLD (listed as Mycobacterium tuberculosis) [ES4, 15-mer peptide from ESAT-6 of M. tuberculosis]	23	
WNFAGIEAAASAIQG [ES2]	40	
YQGVQQKWDATATEL [ES11]	34	
